Reference: publication PMC8557901 (Microbiology Spectrum, 2021)
Like-named read-outs stand apart in the source and are kept apart here.

Assays:
[1] = tested on: HepG2 or CHO cell lines; design: method as in PMID 25791675; conditions: cited from earlier work
[2] = tested on: P. falciparum F32-ART5 quiescent parasites; assay: Quiescent-stage survival assay (QSA); type: cell-based, Plasmodium falciparum; conditions: artemisinin 3 μM 6 h then artemisinin + M1 2.5 μM 24 h versus artemisinin alone; 6-day threshold = active
Protocol: The Plasmodium falciparum artemisinin-resistant strain F32-ART5 and its twin artemisinin-sensitive line F32-TEM ([30], [31]) were cultivated at 37°C with 5% CO2 in human red blood cells (EFS [French Blood Bank]) diluted to 2% hematocrit in RPMI 1640 medium supplemented with 5% human serum (EFS) as previously reported ([47]).
Chemosensitivity evaluation of artemisinin-resistant parasites at the quiescent stage was performed on the F32-ART5 strain using the quiescent-stage survival assay (QSA) ([33]). D-Sorbitol-synchronized ring-stage parasites at 3% parasitemia (2% hematocrit) were first exposed to 3 μM artemisinin for 6 h to induce quiescence of artemisinin-resistant parasites. Then, quiescent parasites were exposed or not (as a control condition) to 2.5 μM M1 for 24 h. After drug exposure, parasite cultures were washed with RPMI 1640 medium and replaced in normal drug-free culture conditions. The time to parasite recrudescence was determined as the time required to reach initial parasitemia. […] In each experiment, results obtained with the condition “artemisinin 3 μM 6 h/artemisinin 3 μM 24 h” were compared to those obtained with the condition “artemisinin 3 μM 6 h/(artemisinin 3 μM + M1 2.5 μM) 24 h” in order to determine the delay in recrudescence time. […] Each experiment was carried out three times independently, and data statistically analyzed. […]

[3] = MTT cell viability assay, human primary hepatocytes; type: cell-based
Description: (§1) Primary human hepatocytes were isolated from liver segments obtained from adult patients undergoing partial hepatectomy (Service de Chirurgie Digestive, Hépato-Bilio Pancréatique, Hôpital Pitié Salpêtrière, Paris, France). Primary simian hepatocytes were isolated from liver segments collected from healthy Macaca fascicularis monkeys from CEA, Fontenay aux Roses, France. All hepatocytes were obtained using collagenase perfusion as previously described ([40]). Simian hepatocytes were immediately cryopreserved with a Nicool-Freezal controlled rate freezer (Air Liquide Santé, Marne la Vallée, France) and then used when needed after fast thawing at 37°C. Primary murine hepatocytes were isolated from liver segments collected from BALB/c mice. Human and murine hepatocytes were used directly after their isolation. Cells were seeded in 96-well plates (Falcon; Becton Dickinson Labware Europe, France) coated with collagen I (BD Bioscience, USA) at a density of 80,000 cells per well. […]
(§2) The toxicity of M1 toward primary hepatocytes and HepG2-CD81 cells was evaluated through the MTT {[3-(4,5-dimethyl-2-thiazolyl)-2,5-diphenyl-2H-tetrazolium bromide]} test ([42]). […] Then, MTT was replaced by a mixture of DMSO-ethanol (1:1) to dissolve formazan crystals and the absorbance was read at 540 nm on a FlexStation plate reader.

[4] = tested on: P. yoelii in HepG2-CD81 cells; design: method as in PMID 25791675; conditions: liver stage of Plasmodium yoelii infecting HepG2-CD81 cells; cited from earlier work
[5] = design: method as in PMID 25791675; conditions: cited from earlier work
[6] = tested on: P. yoelii in HepG2-CD81 cells; assay: Hepatic stage of P. yoelii in HepG2-CD81 cells; type: cell-based; conditions: Plasmodium yoelii; hepatic schizonts
Protocol: Hepatocytes were seeded into collagen-coated black 96-well plates and maintained at 37°C in 5% CO2 in complete medium. […] The infected culture plates were centrifuged for 10 min at 900 × g, allowing fast parasite sedimentation, and further incubated with serial dilutions of M1. […] DMSO was used as a negative control. The number, size, and shape of the parasites were determined using a CellInsight high-content screening platform equipped with Studio HCS software (ThermoFisher Scientific). The parasite immunostaining was done using an […]70 antibody raised in mice and a secondary anti-mouse antibody coupled to Alexa Fluor 488 ([43]). […] Thirty-seven images, representing more than 95% of the total bottom surface area of a culture well in 96-well plates, were captured for analysis. The custom script used for counting and measuring parasites first required identification of the objects based on a fluorescence intensity threshold. The object identity was then further validated based on size and morphological (shape) criteria. The presence of DAPI-associated fluorescence in the selected objects allowed their final selection and the rejection of false positives. […] The parasitic size reduction was calculated on the average object area using the total surface area of each selected object (μm^2).

[7] = MTT cell viability assay, murine primary hepatocytes; type: cell-based, BALB/c mice; conditions: BALB/c, mouse
Description: as §1, §2

Cc1ccc(-c2cc3nc(NC(C)(C)C)[nH]c(=O)c3s2)cc1 [Metabolite M1, 2-(tert-Butylamino)-6-(p-tolyl)thieno[3,2-d]pyrimidin-4(3H)-one]
CC50 [1]: ≥ 25000 nM
median delay in recrudescence time [2]: 6 days
CC50 at 5 days [3]: > 60000 nM
EC50 [4]: 35 nM
Ames test [5]: negative
EC50 [6]: 0.067 µM
CC50 at 2 days [7]: > 60000 nM
